# Experimental data published in the Kinase Knowledgebase extract (Sharma et al. 2016).
# Biological target: ROCK2 (human) (UniProt O75116)
# Assay: Inhibition of ROCK2 Kinase Activity
# Chain of ROCK2 (human) (O75116 whole entry, looked up): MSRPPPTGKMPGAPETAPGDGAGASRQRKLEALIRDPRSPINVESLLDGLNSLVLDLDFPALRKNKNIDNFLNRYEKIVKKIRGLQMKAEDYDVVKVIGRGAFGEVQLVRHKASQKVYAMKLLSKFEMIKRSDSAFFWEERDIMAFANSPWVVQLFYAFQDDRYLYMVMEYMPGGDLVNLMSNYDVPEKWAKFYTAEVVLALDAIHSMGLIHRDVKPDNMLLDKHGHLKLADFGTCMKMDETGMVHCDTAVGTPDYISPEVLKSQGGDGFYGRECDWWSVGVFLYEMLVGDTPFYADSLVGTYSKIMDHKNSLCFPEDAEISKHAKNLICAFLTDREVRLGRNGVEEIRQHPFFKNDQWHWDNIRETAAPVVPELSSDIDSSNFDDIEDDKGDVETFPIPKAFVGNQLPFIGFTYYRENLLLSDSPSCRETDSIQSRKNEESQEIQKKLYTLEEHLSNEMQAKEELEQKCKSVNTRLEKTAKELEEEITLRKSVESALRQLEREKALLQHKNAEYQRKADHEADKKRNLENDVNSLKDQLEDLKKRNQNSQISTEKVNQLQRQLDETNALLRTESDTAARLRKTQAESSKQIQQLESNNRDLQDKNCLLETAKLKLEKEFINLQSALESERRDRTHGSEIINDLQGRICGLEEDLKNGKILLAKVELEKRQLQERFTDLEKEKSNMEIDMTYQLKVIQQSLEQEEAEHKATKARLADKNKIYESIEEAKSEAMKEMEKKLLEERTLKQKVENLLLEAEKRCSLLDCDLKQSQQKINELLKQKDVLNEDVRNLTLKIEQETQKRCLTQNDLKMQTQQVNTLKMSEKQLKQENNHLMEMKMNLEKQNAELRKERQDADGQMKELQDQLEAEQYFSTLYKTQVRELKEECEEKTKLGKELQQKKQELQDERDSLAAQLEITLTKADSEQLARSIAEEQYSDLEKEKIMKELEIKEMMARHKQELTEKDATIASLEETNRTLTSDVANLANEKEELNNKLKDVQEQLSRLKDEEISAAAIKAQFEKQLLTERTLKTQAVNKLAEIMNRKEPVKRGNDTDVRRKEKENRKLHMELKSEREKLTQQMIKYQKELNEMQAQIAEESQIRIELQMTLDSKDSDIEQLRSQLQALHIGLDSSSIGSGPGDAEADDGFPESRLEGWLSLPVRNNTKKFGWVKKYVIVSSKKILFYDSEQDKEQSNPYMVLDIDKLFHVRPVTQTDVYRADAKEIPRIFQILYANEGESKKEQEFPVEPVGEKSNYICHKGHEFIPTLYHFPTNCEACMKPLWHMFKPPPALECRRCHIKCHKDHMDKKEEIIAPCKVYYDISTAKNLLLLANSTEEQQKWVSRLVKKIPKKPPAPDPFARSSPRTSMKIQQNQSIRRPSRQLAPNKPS
row,SMILES,IC50 [µM]
1,Cc1ccc(C(=O)NCc2nc(-c3c[nH]c4ncccc34)n[nH]2)cc1Br,> 5
2,O=C(NCc1c[nH]c(-c2ccncc2)n1)c1ccc(O)cc1O,≤ 5
3,O=C(NCc1nc(-c2c[nH]c3ncccc23)n[nH]1)c1ccc2ccccc2c1O,> 5
4,COc1cccc(OC)c1C(=O)NCc1nc(-c2c[nH]c3ncccc23)n[nH]1,> 5
5,Cc1ccc([N+](=O)[O-])c(C(=O)NCc2nc(-c3ccncc3)n[nH]2)c1,> 5
6,COc1cccc(C(=O)NCc2nc(-c3ccncc3)no2)c1,> 5
7,O=C(NCc1nc(-c2ccncc2)n[nH]1)c1csc2ccccc12,> 5
8,O=C(NCc1nc(-c2c[nH]c3ncccc23)n[nH]1)c1cc(Cl)ccn1,> 5
9,O=C(NCc1nc(-c2c[nH]c3ncccc23)n[nH]1)c1cncc(Br)c1,> 5
10,O=C(NCc1nc(-c2c[nH]c3ncccc23)n[nH]1)c1cccc(Br)c1,> 5
11,O=C(NCc1nc(-c2ccncc2)n[nH]1)c1ccccc1O,≤ 5
12,COc1ccc(C=CC(=O)NCc2nc(-c3ccncc3)n[nH]2)cc1O,> 5
13,Cc1c(C(=O)NCc2nc(-c3ccncc3)n[nH]2)cccc1[N+](=O)[O-],> 5
14,Cc1ccc(SCC(=O)NCc2nc(-c3ccncc3)n[nH]2)cc1,> 5
15,CCC(=O)C(=O)NCc1nc(-c2c[nH]c3ncccc23)n[nH]1,> 5
16,c1ccc2c(NCc3nc(-c4ccncc4)n[nH]3)ncnc2c1,> 5
17,O=Cc1ccccc1OCC(=O)NCc1nc(-c2c[nH]c3ncccc23)n[nH]1,> 5
18,O=C(NCc1nc(-c2ccncc2)n[nH]1)c1cccc(Oc2ccccc2)c1,> 5
19,O=C(NCc1nc(-c2ccncc2)n[nH]1)c1ccc(Cl)cc1Cl,> 5
20,O=C(NCc1ncc(-c2ccncc2)s1)c1cccs1,> 5
21,CC(=O)c1ccccc1C(=O)NCc1nc(-c2ccncc2)n[nH]1,> 5
22,COC(=O)c1ccc(C(=O)NCc2nc(-c3c[nH]c4ncccc34)n[nH]2)cc1,> 5
23,Cc1cc(C)c(C(=O)NCc2nc(-c3ccncc3)n[nH]2)c(C)c1,> 5
24,O=C(NCc1cc(-c2ccncc2)n[nH]1)c1ccc(O)cc1O,≤ 5
25,CCCCc1ccc(C(=O)NCc2nc(-c3ccncc3)n[nH]2)cc1,> 5
26,O=C(NCc1nc(-c2ccncc2)n[nH]1)c1cccc(Cl)c1[N+](=O)[O-],≤ 5
27,CC(C)(C)OC(=O)N1Cc2ccccc2CC1C(=O)NCc1nc(-c2c[nH]c3ncccc23)n[nH]1 (centres undefined),> 5

row,SMILES,IC50 [µM]
1,CC(C)C(C(=O)NCc1nc(-c2c[nH]c3ncccc23)n[nH]1)N(C)C(=O)OC(C)(C)C (centres undefined),> 5
2,COc1cc(OC)c(C(=O)NCc2nc(-c3c[nH]c4ncccc34)n[nH]2)c(OC)c1,> 5
3,O=C(NCc1nc(-c2ccncc2)n[nH]1)c1ccncc1-c1ccccc1,> 5
4,N#Cc1ccc(C(=O)NCc2nc(-c3ccncc3)n[nH]2)cc1,> 5
5,CCc1cccc(C(=O)NCc2nc(-c3ccncc3)n[nH]2)c1O,≤ 5
6,CC(C(=O)NCc1nc(-c2c[nH]c3ncccc23)n[nH]1)c1ccc(-c2ccccc2)c(F)c1 (centres undefined),> 5
7,CC(C)(C)OC(=O)N1CCCC1C(=O)NCc1nc(-c2ccncc2)n[nH]1 (centres undefined),> 5
8,O=C(Cc1ccc(O)c(F)c1)NCc1nc(-c2ccncc2)n[nH]1,> 5
9,O=C(NCc1nc(-c2ccncc2)n[nH]1)c1ccc(Cl)c(Br)c1,> 5
10,O=C(NCc1nc(-c2ccncc2)n[nH]1)c1ccccc1C(=O)c1ccc(F)cc1,> 5
11,O=C(NCc1nc(-c2ccncc2)n[nH]1)c1ccc(O)cc1O,≤ 5
12,O=C(NCc1nc(-c2c[nH]c3ncccc23)n[nH]1)c1cc(F)c(F)c(O)c1F,> 5
13,O=C(NCc1nc(-c2c[nH]c3ncccc23)n[nH]1)c1ncc[nH]1,> 5
14,O=C(Cc1ccccc1CO)NCc1nc(-c2c[nH]c3ncccc23)n[nH]1,> 5
15,O=C(NCc1nc(-c2ccncc2)co1)c1ccc(O)cc1O,≤ 5
16,O=C(C=Cc1ccccc1F)NCc1nc(-c2c[nH]c3ncccc23)n[nH]1,> 5
17,CC(=O)Oc1ccc(C(=O)NCc2nc(-c3c[nH]c4ncccc34)n[nH]2)cc1,≤ 5
18,Cc1cccc(C(=O)NCc2cc(-c3ccncc3)n[nH]2)c1O,≤ 5
19,O=C(NCc1nc(-c2ccncc2)n[nH]1)c1cc(O)ccc1O,≤ 5
20,O=C(NCc1nc(-c2ccncc2)n[nH]1)c1ccccc1Cl,> 5
21,COc1cc(OC)c(C(=O)NCc2nc(-c3c[nH]c4ncccc34)n[nH]2)cc1OC,> 5
22,COc1cccc(O)c1C(=O)NCc1nc(-c2c[nH]c3ncccc23)n[nH]1,> 5
23,O=C(NCc1nc(-c2c[nH]c3ncccc23)n[nH]1)c1ccc(I)cc1,> 5
24,O=C(NCc1nc(-c2ccncc2)n[nH]1)c1cncc(Br)c1,> 5
25,Cc1ccc(C)c(C(=O)NCc2nc(-c3c[nH]c4ncccc34)n[nH]2)c1,> 5
26,Cc1ccc(C(=O)NCc2nc(-c3ccncc3)n[nH]2)cc1Br,> 5
27,O=C(NCc1nc(-c2ccncc2)n[nH]1)c1ccncc1,> 5
